In this assay the test system is LP1 cells. Kind of assay: Cell viability (resazurin), LP1. The format is cell-based. Particulars: Homo sapiens, LP-1, 72 h, 3 days. The method, then:
The primer sequences used were:
Gene Gene ID Forward Primer (5’-3’) Reverse primer (5’-3’)
myc NM_001354870.1 GTAGTGGAAAACCAGCC […]
crebbp NM_004380.3 TGTCACAGGGACAGGTGC […]
Cells were plated onto 96 well plates at the following densities in 90 μl volume: 3x104
LP1 cells/well or 5x10^3 LNCaP cells/well both plated same day as treatment, or 2x104
MM1S cells/well or 1.5x10^3 SH-SY5Y cells/well both plated day prior to treatment.
Compounds were added in 10 μl to give the stated concentrations with a final
concentration of 0.1 % DMSO. Following 3 days of compound treatment, resazurin
(Acros Organics, 189900010) was added at a f inal concentration of 86 μM and incubated
for the following times: MM1S 5 h, LP1 3 h, LNCaP 1 h 30 min, SH-SY5Y 6 h.
Fluorescence (excitation = 560 nm, emission = 590 nm) was measured using a
spectraMax M5 microplate reader (Molecular Devices) and cell viability was calculated
relative to DMSO treated cells on the same plate. Data was fitted using a four -parameter
dose-response curve in GraphPad Prism v. 9.5.1, where the top is fixed at 100 %. GI50
values were calculated as the concentration required to inhibit cell viability to 50 %
relative to DMSO treated cells after 3 days.
Sample digestion and clean up: Treated cells were washed in PBS and cell pellets
were then lysed in 4 % SDS/Tris-HCl, treated with High Intensity Focused Ultrasound […]
For orientation: Alamar Blue is a resazurin reagent that responds to reducing activity.

Each structure is given as a SMILES string.

As usually defined, the GI50 is the concentration at which growth is held to half of that of the control. Low values mean greater sensitivity of the cells, high ones lower sensitivity of the cells. `Cc1cc2c(NC(=O)c3cc(NC(=O)CCCCCCCCCCNc4cccc5c4C(=O)N(C4CCC(=O)NC4=O)C5=O)cc(-c4ccn(C)n4)c3)cccc2nn1` (stereo not shown) [dCE-2]: the GI50 worked out at 1500 nM.

Values taken from PMC11423305, “Structure-Based Design of CBP/EP300 Degraders: When Cooperativity Overcomes Affinity” (JACS Au, 2024).
